Results from patent US10765114B2, “4-amino-6-(pyridyl and 2-substitutedphenyl)-picolinates and 6-amino-2-(pyridyl and 2-substitutedphenyl)-pyrimidine-4-carboxylates and their use as herbicides” (Dow AgroSciences LLC, priority 2013, dated 2020).
Like-named read-outs stand apart in the source and are kept apart here.

How the values were obtained:
[1] = system: Key Broadleaf Weed and Crop Species; assay: Post-Emergent Test II (Table 5); assay type: in vivo; details: post-emergence, 336 h; for pest or weed control at 70 g/ha: application rate 70 (kg ai/ha; footnote: g ai/ha); for pest or weed control at 140 g/ha: application rate 140 (kg ai/ha; footnote: g ai/ha)
Summary of the method: (§1)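 Visual injury ratings (0 = no injury, 100 = complete kill) taken 14 days after treatment, relative to untreated controls. Compounds, in an acetone/DMSO aqueous carrier with crop oil and surfactant, were applied by track sprayer at 187 L/ha, in a twofold dilution series from the top rate, to plants at the first to second true-leaf stage.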

[2] = system: Key Grass and Sedge Weeds as well as Grass Crops; assay: Post-Emergent Test II (Table 6); assay type: in vivo; details: post-emergence, 336 h, 14 days after application; for pest or weed control at 70 g/ha: 70 g ai/ha; for pest or weed control at 140 g/ha: 140 g ai/ha
Summary of the method: as §1

[3] = Abutilon theophrasti, ABUTH: velvetleaf (Abutilon theophrasti), read-out: Visual Growth Reduction (%) 14 Days After Application ABUTH
[4] = Amaranthus retroflexus, AMARE: redroot pigweed (Amaranthus retroflexus), read-out: Visual Growth Reduction (%) 14 Days After Application AMARE
[5] = Brassica napus, BRSSS: oilseed rape, canola (Brassica napus), read-out: Visual Growth Reduction (%) 14 Days After Application BRSSS
[6] = Chenopodium album, CHEAL: lambsquarters (Chenopodium album), read-out: Visual Growth Reduction (%) 14 Days After Application CHEAL
[7] = Euphorbia heterophylla, EPHHL: wild poinsettia (Euphorbia heterophylla), read-out: Visual Growth Reduction (%) 14 Days After Application EPHHL
[8] = Helianthus annuus, HELAN: sunflower (Helianthus annuus), read-out: Visual Growth Reduction (%) 14 Days After Application HELAN
[9] = Viola tricolor, VIOTR: wild pansy (Viola tricolor), read-out: Visual Growth Reduction (%) 14 Days After Application VIOTR
[10] = CYPSS, read-out: Visual Growth Reduction (%) 14 Days After Application CYPSS
[11] = DIGSA: crabgrass (Digitaria sanguinalis), read-out: Visual Growth Reduction (%) 14 Days After Application DIGSA
[12] = ECHSS, read-out: Visual Growth Reduction (%) 14 Days After Application ECHSS
[13] = ORYSS (crop), read-out: Visual Growth Reduction (%) 14 Days After Application ORYSS
[14] = SETFA: giant foxtail (Setaria faberi), read-out: Visual Growth Reduction (%) 14 Days After Application SETFA
[15] = SORVU: grain sorghum (Sorghum vulgare), read-out: Visual Growth Reduction (%) 14 Days After Application SORVU
[16] = TRZSS (crop), read-out: Visual Growth Reduction (%) 14 Days After Application TRZSS
[17] = ZEAMX: maize, corn (Zea mays), read-out: Visual Growth Reduction (%) 14 Days After Application ZEAMX

| SMILES | pest or weed control at 70 g/ha [1, 3] [%] | pest or weed control at 140 g/ha [1, 3] [%] | pest or weed control at 70 g/ha [1, 4] [%] | pest or weed control at 140 g/ha [1, 4] [%] | pest or weed control at 70 g/ha [1, 5] [%] | pest or weed control at 140 g/ha [1, 5] [%] | pest or weed control at 70 g/ha [1, 6] [%] | pest or weed control at 140 g/ha [1, 6] [%] | pest or weed control at 70 g/ha [1, 7] [%] | pest or weed control at 140 g/ha [1, 7] [%] | pest or weed control at 70 g/ha [1, 8] [%] | pest or weed control at 140 g/ha [1, 8] [%] | pest or weed control at 70 g/ha [1, 9] [%] | pest or weed control at 140 g/ha [1, 9] [%] | pest or weed control at 70 g/ha [2, 10] [%] | pest or weed control at 140 g/ha [2, 10] [%] | pest or weed control at 70 g/ha [2, 11] [%] | pest or weed control at 140 g/ha [2, 11] [%] | pest or weed control at 70 g/ha [2, 12] [%] | pest or weed control at 140 g/ha [2, 12] [%] | other results |
| --- | --- | --- | --- | --- | --- | --- | --- | --- | --- | --- | --- | --- | --- | --- | --- | --- | --- | --- | --- | --- | --- |
| COC(=O)c1nc(-c2ccc(Cl)nc2F)cc(N)c1Cl [Compound 17, methyl 4-amino-5,6′-dichloro-2′-fluoro-[2,3′-bipyridine]-6-carboxylate] | 95 to 100 | 95 to 100 | 95 to 100 | 95 to 100 | 0 to 29 | 30 to 44 | 95 to 100 | 95 to 100 | 0 to 29 | 45 to 59 | 60 to 74 | 75 to 84 | 60 to 74 | 60 to 74 | 60 to 74 | 75 to 84 | 0 to 29 | 0 to 29 | 60 to 74 | 85 to 94 | pest or weed control at 70 g/ha [2, 13]: 0 to 29%; pest or weed control at 140 g/ha [2, 13]: 0 to 29%; pest or weed control at 70 g/ha [2, 14]: 0 to 29%; pest or weed control at 140 g/ha [2, 14]: 0 to 29%; pest or weed control at 70 g/ha [2, 15]: 0 to 29%; pest or weed control at 140 g/ha [2, 15]: 30 to 44%; pest or weed control at 70 g/ha [2, 16]: 0 to 29%; pest or weed control at 140 g/ha [2, 16]: 0 to 29%; pest or weed control at 70 g/ha [2, 17]: 0 to 29%; pest or weed control at 140 g/ha [2, 17]: 30 to 44% |
| Nc1cc(-c2ccc(Cl)c(Cl)c2Cl)nc(C(=O)O)c1Cl [Compound 93] | 85 to 94 | 85 to 94 | 95 to 100 | 95 to 100 | 95 to 100 | 95 to 100 | 85 to 94 | 95 to 100 | 95 to 100 | 95 to 100 | 60 to 74 | 75 to 84 | 60 to 74 | 0 to 29 | 0 to 29 | 0 to 29 | 60 to 74 | 60 to 74 | 30 to 44 | 30 to 44 | pest or weed control at 70 g/ha [2, 13]: 0 to 29%; pest or weed control at 140 g/ha [2, 13]: 0 to 29%; pest or weed control at 70 g/ha [2, 14]: 0 to 29%; pest or weed control at 140 g/ha [2, 14]: 0 to 29%; pest or weed control at 70 g/ha [2, 15]: 0 to 29%; pest or weed control at 140 g/ha [2, 15]: 0 to 29%; pest or weed control at 70 g/ha [2, 16]: 45 to 59%; pest or weed control at 140 g/ha [2, 16]: 60 to 74%; pest or weed control at 70 g/ha [2, 17]: 30 to 44%; pest or weed control at 140 g/ha [2, 17]: 30 to 44% |
| COC(=O)c1nc(-c2ccc(Cl)c(F)c2CO)cc(N)c1Cl [Compound 29, Methyl 4-amino-3-chloro-6-(4-chloro-3-fluoro-2-(hydroxymethyl)phenyl)picolinate] | 0 to 29 | 0 to 29 | 0 to 29 | 0 to 29 | 0 to 29 | 0 to 29 | 85 to 94 | 85 to 94 | 0 to 29 | 0 to 29 | 0 to 29 | 0 to 29 | 0 to 29 | 0 to 29 | 0 to 29 | 0 to 29 | 0 to 29 | 0 to 29 | 0 to 29 | 0 to 29 | pest or weed control at 70 g/ha [2, 13]: 0 to 29%; pest or weed control at 140 g/ha [2, 13]: 0 to 29%; pest or weed control at 70 g/ha [2, 14]: 0 to 29%; pest or weed control at 140 g/ha [2, 14]: 0 to 29%; pest or weed control at 70 g/ha [2, 15]: 0 to 29%; pest or weed control at 140 g/ha [2, 15]: 0 to 29%; pest or weed control at 70 g/ha [2, 16]: 0 to 29%; pest or weed control at 140 g/ha [2, 16]: 0 to 29%; pest or weed control at 70 g/ha [2, 17]: 0 to 29%; pest or weed control at 140 g/ha [2, 17]: 0 to 29% |
| COC(=O)c1nc(-c2ccc(Cl)c(F)c2C)nc(N)c1OC [Compound 63] | 0 to 29 | 0 to 29 | 85 to 94 | 85 to 94 | 30 to 44 | 45 to 59 | 85 to 94 | 85 to 94 | 0 to 29 | 0 to 29 | 75 to 84 | 75 to 84 | 0 to 29 | 0 to 29 | 0 to 29 | 0 to 29 | 0 to 29 | 0 to 29 | 0 to 29 | 0 to 29 | pest or weed control at 70 g/ha [2, 13]: 0 to 29%; pest or weed control at 140 g/ha [2, 13]: 0 to 29%; pest or weed control at 70 g/ha [2, 14]: 0 to 29%; pest or weed control at 140 g/ha [2, 14]: 0 to 29%; pest or weed control at 70 g/ha [2, 15]: 0 to 29%; pest or weed control at 140 g/ha [2, 15]: 0 to 29%; pest or weed control at 70 g/ha [2, 16]: 0 to 29%; pest or weed control at 140 g/ha [2, 16]: 0 to 29%; pest or weed control at 70 g/ha [2, 17]: 0 to 29%; pest or weed control at 140 g/ha [2, 17]: 0 to 29% |
